“And” between values parts separate entries of the source, which are not always exact repeats. Equal entries are not always repeated.
Assay: specific heat capacity at constant pressure; xn = mol fraction of the nth substance listed
Settings: 100 kPa, Crystal of intercomponent compound 1, x2 = 0.486

[Te] [tellurium] + [Ga]
Settings | specific heat capacity
241.59 K, relaxation calorimetry | 244.22 J/K/kg
241.78 K, relaxation calorimetry | 242.8 J/K/kg
241.86 K, relaxation calorimetry | 243.61 J/K/kg
241.89 K, relaxation calorimetry | 243.51 J/K/kg
245.93 K, relaxation calorimetry | 243.46 J/K/kg
245.97 K, relaxation calorimetry | 243.31 J/K/kg
246.62 K, relaxation calorimetry | 244.93 J/K/kg
246.79 K, relaxation calorimetry | 243.87 J/K/kg
248.47 K, relaxation calorimetry | 241.79 J/K/kg
248.52 K, relaxation calorimetry | 242.09 J/K/kg
248.53 K, relaxation calorimetry | 241.99 J/K/kg
249.9 K, relaxation calorimetry | 242.85 J/K/kg
249.93 K, relaxation calorimetry | 242.9 J/K/kg
251.64 K, relaxation calorimetry | 245.64 J/K/kg
251.81 K, relaxation calorimetry | 244.63 J/K/kg
253.96 K, relaxation calorimetry | 242.96 J/K/kg
254 K, relaxation calorimetry | 243.06 J/K/kg
256.38 K, relaxation calorimetry | 242.14 J/K/kg
256.44 K, relaxation calorimetry | 242.35 J/K/kg and 242.65 J/K/kg
256.66 K, relaxation calorimetry | 246.25 J/K/kg
256.83 K, relaxation calorimetry | 245.08 J/K/kg
258.12 K, relaxation calorimetry | 244.12 J/K/kg
258.16 K, relaxation calorimetry | 244.02 J/K/kg
260.51 K, Extra sensitive DSC | 245.54 J/K/kg
261.66 K, relaxation calorimetry | 248.07 J/K/kg
261.82 K, relaxation calorimetry | 246.86 J/K/kg
262.18 K, relaxation calorimetry | 245.13 J/K/kg
262.22 K, relaxation calorimetry | 244.93 J/K/kg
263.12 K, Extra sensitive DSC | 246.4 J/K/kg
264.28 K, relaxation calorimetry | 243.97 J/K/kg
264.35 K, relaxation calorimetry | 244.43 J/K/kg and 244.17 J/K/kg
265.73 K, Extra sensitive DSC | 246.3 J/K/kg
266.13 K, relaxation calorimetry | 246.15 J/K/kg
266.19 K, relaxation calorimetry | 245.59 J/K/kg
266.68 K, relaxation calorimetry | 246.55 J/K/kg
266.71 K, relaxation calorimetry | 246.55 J/K/kg
266.72 K, relaxation calorimetry | 246.4 J/K/kg
268.33 K, Extra sensitive DSC | 246.81 J/K/kg
270.07 K, Extra sensitive DSC | 246.96 J/K/kg
270.3 K, relaxation calorimetry | 248.78 J/K/kg
270.35 K, relaxation calorimetry | 247.67 J/K/kg
270.64 K, relaxation calorimetry | 247.06 J/K/kg
270.65 K, relaxation calorimetry | 246.66 J/K/kg
271.54 K, relaxation calorimetry | 248.83 J/K/kg
271.73 K, relaxation calorimetry | 246.76 J/K/kg
271.83 K, relaxation calorimetry | 246.35 J/K/kg
272.68 K, Extra sensitive DSC | 247.06 J/K/kg
272.79 K, relaxation calorimetry | 247.62 J/K/kg
272.8 K, relaxation calorimetry | 247.31 J/K/kg
273.54 K, relaxation calorimetry | 249.19 J/K/kg
273.74 K, relaxation calorimetry | 246.71 J/K/kg
273.84 K, relaxation calorimetry | 246.55 J/K/kg
275.28 K, Extra sensitive DSC | 247.26 J/K/kg
275.55 K, relaxation calorimetry | 249.14 J/K/kg
275.75 K, relaxation calorimetry | 246.76 J/K/kg
275.85 K, relaxation calorimetry | 246.5 J/K/kg
277.54 K, relaxation calorimetry | 249.29 J/K/kg
277.75 K, relaxation calorimetry | 246.76 J/K/kg
277.85 K, relaxation calorimetry | 246.55 J/K/kg
277.88 K, Extra sensitive DSC | 247.72 J/K/kg
279.54 K, relaxation calorimetry | 249.09 J/K/kg
279.76 K, relaxation calorimetry | 246.5 J/K/kg
279.87 K, relaxation calorimetry | 246.45 J/K/kg
280.49 K, Extra sensitive DSC | 247.87 J/K/kg
281.52 K, relaxation calorimetry | 249.09 J/K/kg
281.76 K, relaxation calorimetry | 246.25 J/K/kg
281.87 K, relaxation calorimetry | 246.1 J/K/kg
283.09 K, Extra sensitive DSC | 248.33 J/K/kg
283.53 K, relaxation calorimetry | 248.99 J/K/kg
283.78 K, relaxation calorimetry | 246.15 J/K/kg
283.87 K, relaxation calorimetry | 246.66 J/K/kg
285.53 K, relaxation calorimetry | 249.44 J/K/kg
285.7 K, Extra sensitive DSC | 248.58 J/K/kg
285.78 K, relaxation calorimetry | 246.4 J/K/kg
285.88 K, relaxation calorimetry | 246.6 J/K/kg
287.54 K, relaxation calorimetry | 249.54 J/K/kg
287.78 K, relaxation calorimetry | 246.35 J/K/kg
287.89 K, relaxation calorimetry | 246.66 J/K/kg
288.3 K, Extra sensitive DSC | 248.89 J/K/kg
289.53 K, relaxation calorimetry | 249.65 J/K/kg
289.79 K, relaxation calorimetry | 246.55 J/K/kg
289.89 K, relaxation calorimetry | 246.86 J/K/kg
290.04 K, Extra sensitive DSC | 248.94 J/K/kg
291.53 K, relaxation calorimetry | 250.41 J/K/kg
291.8 K, relaxation calorimetry | 247.16 J/K/kg
291.9 K, relaxation calorimetry | 247.52 J/K/kg
292.64 K, Extra sensitive DSC | 249.09 J/K/kg
293.52 K, relaxation calorimetry | 251.32 J/K/kg
293.81 K, relaxation calorimetry | 248.68 J/K/kg
293.9 K, relaxation calorimetry | 248.89 J/K/kg
295.25 K, Extra sensitive DSC | 249.29 J/K/kg
295.51 K, relaxation calorimetry | 251.37 J/K/kg
295.84 K, relaxation calorimetry | 249.34 J/K/kg
295.91 K, relaxation calorimetry | 249.34 J/K/kg
297.52 K, relaxation calorimetry | 250.81 J/K/kg
297.83 K, relaxation calorimetry | 250.71 J/K/kg
297.85 K, Extra sensitive DSC | 249.75 J/K/kg
297.93 K, relaxation calorimetry | 248.68 J/K/kg
299.53 K, relaxation calorimetry | 250.25 J/K/kg
299.85 K, relaxation calorimetry | 250.15 J/K/kg
299.94 K, relaxation calorimetry | 248.63 J/K/kg
300.45 K, Extra sensitive DSC | 249.9 J/K/kg
301.54 K, relaxation calorimetry | 251.06 J/K/kg
301.87 K, relaxation calorimetry | 250.86 J/K/kg
301.95 K, relaxation calorimetry | 249.39 J/K/kg
303.06 K, Extra sensitive DSC | 250.51 J/K/kg
303.81 K, relaxation calorimetry | 250.56 J/K/kg
303.84 K, relaxation calorimetry | 252.33 J/K/kg
303.87 K, relaxation calorimetry | 250.51 J/K/kg
305.66 K, Extra sensitive DSC | 250.76 J/K/kg
307.4 K, Extra sensitive DSC | 250.81 J/K/kg
310 K, Extra sensitive DSC | 251.22 J/K/kg
312.6 K, Extra sensitive DSC | 251.42 J/K/kg
315.21 K, Extra sensitive DSC | 251.88 J/K/kg
317.81 K, Extra sensitive DSC | 251.93 J/K/kg
320.41 K, Extra sensitive DSC | 252.23 J/K/kg
323.02 K, Extra sensitive DSC | 252.48 J/K/kg
325.62 K, Extra sensitive DSC | 252.53 J/K/kg
327.36 K, Extra sensitive DSC | 252.74 J/K/kg
329.96 K, Extra sensitive DSC | 253.04 J/K/kg
332.56 K, Extra sensitive DSC | 253.19 J/K/kg
335.17 K, Extra sensitive DSC | 253.5 J/K/kg
337.77 K, Extra sensitive DSC | 253.7 J/K/kg
340.38 K, Extra sensitive DSC | 254 J/K/kg
342.98 K, Extra sensitive DSC | 254.41 J/K/kg
345.58 K, Extra sensitive DSC | 254.41 J/K/kg
348.19 K, Extra sensitive DSC | 254.76 J/K/kg
349.92 K, Extra sensitive DSC | 254.76 J/K/kg
352.53 K, Extra sensitive DSC | 254.66 J/K/kg
355.13 K, Extra sensitive DSC | 255.32 J/K/kg
356.87 K, Extra sensitive DSC | 255.07 J/K/kg
358.6 K, Extra sensitive DSC | 254.97 J/K/kg
